Measured values reported in the supplement of paper PMC5908809.

What was measured:
SNK-6 (IL-2 2.5 ng/mL) [1] = assay: drug sensitivity score (DSS) (DSS units); higher = more sensitive; extreme values may be limits of the assay; details: 72 h
KAI3 (IL-2 2.5 ng/mL) [2] = assay: as above; details: 72 h
NK-92 (IL-2 2.5 ng/mL) [3] = assay: as above; details: 72 h
[4] = tested on: normal primary NK cells, pool 1 (3 donors), resting (IL-2 0 ng/mL); assay: as above; details: 72 h
NKL (IL-2 2.5 ng/mL) [5] = assay: as above; details: 72 h
DERL-7 (IL-2 2.5 ng/mL) [6] = assay: as above; details: 72 h
IMC-1 (IL-2 20 ng/mL) [7] = assay: as above; details: 72 h
YT (IL-2 2.5 ng/mL) [8] = assay: as above; details: 72 h
[9] = tested on: normal primary NK cells, pool 1 (3 donors) (IL-2 2.5 ng/mL); assay: as above; details: 72 h
KHYG-1 (IL-2 2.5 ng/mL) [10] = assay: as above; details: 72 h
NK-YS (IL-2 2.5 ng/mL) [11] = assay: as above; details: 72 h
[12] = tested on: normal primary NK cells, pool 2 (3 donors) (IL-2 2.5 ng/mL); assay: as above; details: 72 h
[13] = tested on: normal primary NK cells, pool 3 (3 donors) (IL-2 2.5 ng/mL); assay: as above; details: 72 h
[14] = tested on: normal NK cells expanded with K562-aAPC; assay: as above; details: 72 h; IL-2 2.5 ng/mL
Experimental: (§1)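 Drug sensitivity and resistance testing on K562-aAPC-expanded normal NK cells: 5 concentrations (10-fold steps over a 10,000-fold range), 72 h at 37 °C, viability by CellTiter-Glo normalised to DMSO and benzethonium chloride controls; DSS from the fitted curve.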

[15] = tested on: normal NK cells expanded with K562-aAPC; assay: percent inhibition of viability; higher = more inhibition; details: 72 h, IL-2 2.5 ng/mL
Experimental: as §1

SNK-6 (IL-2 2.5 ng/mL) [16] = assay: as above; details: 72 h
KAI3 (IL-2 2.5 ng/mL) [17] = assay: as above; details: 72 h
NK-92 (IL-2 2.5 ng/mL) [18] = assay: as above; details: 72 h
[19] = tested on: normal primary NK cells, pool 1 (3 donors), resting (IL-2 0 ng/mL); assay: as above; details: 72 h
NKL (IL-2 2.5 ng/mL) [20] = assay: as above; details: 72 h
DERL-7 (IL-2 2.5 ng/mL) [21] = assay: as above; details: 72 h
IMC-1 (IL-2 20 ng/mL) [22] = assay: as above; details: 72 h
YT (IL-2 2.5 ng/mL) [23] = assay: as above; details: 72 h
[24] = tested on: normal primary NK cells, pool 1 (3 donors) (IL-2 2.5 ng/mL); assay: as above; details: 72 h
KHYG-1 (IL-2 2.5 ng/mL) [25] = assay: as above; details: 72 h
NK-YS (IL-2 2.5 ng/mL) [26] = assay: as above; details: 72 h
[27] = tested on: normal primary NK cells, pool 2 (3 donors) (IL-2 2.5 ng/mL); assay: as above; details: 72 h
[28] = tested on: normal primary NK cells, pool 3 (3 donors) (IL-2 2.5 ng/mL); assay: as above; details: 72 h

CN1CCN(CCOc2cc(OC3CCOCC3)c3c(Nc4c(Cl)ccc5c4OCO5)ncnc3c2)CC1 [Saracatinib] (max concentration tested 10000 nM)
Details | drug sensitivity score
DERL-7 (IL-2 2.5 ng/mL) [6] | 6.92
IMC-1 (IL-2 20 ng/mL) [7] | 5.54
KAI3 (IL-2 2.5 ng/mL) [2] | 4.31
KHYG-1 (IL-2 2.5 ng/mL) [10] | 4.35
NK-92 (IL-2 2.5 ng/mL) [3] | 6.22
NK-YS (IL-2 2.5 ng/mL) [11] | 3.64
NKL (IL-2 2.5 ng/mL) [5] | 2.2
SNK-6 (IL-2 2.5 ng/mL) [1] | 0.27
YT (IL-2 2.5 ng/mL) [8] | 7.37
[4] | 7.66
[9] | 2.04
[12] | 0
[13] | 0
[14] | 6.3

percent inhibition of viability [%]
Details | 1 nM | 10 nM | 100 nM | 1000 nM | 10000 nM
DERL-7 (IL-2 2.5 ng/mL) [21] | -0.15 | 1.98 | 7.09 | 17.7 | 74.7
IMC-1 (IL-2 20 ng/mL) [22] | -4.77 | -2.25 | -2.36 | -0.89 | 100
KAI3 (IL-2 2.5 ng/mL) [17] | -1.92 | -9.84 | -6.46 | 7.42 | 56.8
KHYG-1 (IL-2 2.5 ng/mL) [25] | -5.13 | -8 | -4.22 | 0.25 | 77.8
NK-92 (IL-2 2.5 ng/mL) [18] | -2.32 | 4.14 | 9.55 | 18.4 | 68.4
NK-YS (IL-2 2.5 ng/mL) [26] | -1.8 | -3.94 | -0.18 | 5.62 | 51.1
NKL (IL-2 2.5 ng/mL) [20] | -14.8 | -18.5 | -9.99 | -5.02 | 48.9
SNK-6 (IL-2 2.5 ng/mL) [16] | -3.28 | -15.1 | -18 | -41.3 | 21.7
YT (IL-2 2.5 ng/mL) [23] | -2.96 | -2.67 | -0.94 | 26.4 | 68.2
[15] | -1.72 | -3.19 | 2.46 | 6.91 | 94.3
[19] | -9.8 | 15.2 | 16.2 | 24 | 85.8
[24] | -9.24 | 11.2 | 7.65 | -4.55 | 45.9
[27] | -0.71 | -2.6 | 6.1 | -10.6 | 9.82
[28] | -6.07 | 9.22 | 9.63 | -17.2 | 0.69

OCCn1cc(-c2cnc3nnn(Cc4ccc5ncccc5c4)c3n2)cn1 (max concentration tested 2500 nM)
Details | drug sensitivity score
DERL-7 (IL-2 2.5 ng/mL) [6] | 0
IMC-1 (IL-2 20 ng/mL) [7] | 0
KAI3 (IL-2 2.5 ng/mL) [2] | 0.81
KHYG-1 (IL-2 2.5 ng/mL) [10] | 0
NK-92 (IL-2 2.5 ng/mL) [3] | 3.17
NK-YS (IL-2 2.5 ng/mL) [11] | 0.5
NKL (IL-2 2.5 ng/mL) [5] | 3.7
SNK-6 (IL-2 2.5 ng/mL) [1] | 0
YT (IL-2 2.5 ng/mL) [8] | 0.06
[4] | 0.02
[9] | 0.34
[12] | 0
[13] | 0
[14] | 0.06

percent inhibition of viability [%]
Details | 0.25 nM | 2.5 nM | 25 nM | 250 nM | 2500 nM
DERL-7 (IL-2 2.5 ng/mL) [21] | -0.9 | -0.84 | 0.34 | -3 | -8.26
IMC-1 (IL-2 20 ng/mL) [22] | -3.49 | 3.05 | -2.66 | 5.69 | 6.58
KAI3 (IL-2 2.5 ng/mL) [17] | -0.76 | -5.72 | 5.28 | 8.13 | 18.2
KHYG-1 (IL-2 2.5 ng/mL) [25] | -6.94 | -4.08 | -4.27 | 1.49 | 7.29
NK-92 (IL-2 2.5 ng/mL) [18] | -3.39 | 13.7 | -1.59 | 11.9 | 33.2
NK-YS (IL-2 2.5 ng/mL) [26] | -3.62 | -4.61 | -4.57 | 1.28 | 16.9
NKL (IL-2 2.5 ng/mL) [20] | -0.17 | 5.36 | 16.3 | 12 | 17.6
SNK-6 (IL-2 2.5 ng/mL) [16] | -14.8 | -17.6 | -15.8 | -7.55 | 1.66
YT (IL-2 2.5 ng/mL) [23] | -6.67 | -5.28 | -6.34 | -0.92 | 12.8
[15] | -1.81 | -5.59 | -1.09 | 4.36 | 10.7
[19] | -7.9 | 6.66 | 4.48 | 7.02 | 11.4
[24] | -4.03 | 5.55 | 18.1 | 6.24 | 10.1
[27] | -2.43 | 3.77 | 5.1 | -2.16 | 4.71
[28] | -4.09 | 3.45 | 7.9 | -5.94 | 7.18
